Reference: article PMC10672332, “Lecanicilliums A–F, Thiodiketopiperazine-Class Alkaloids from a Mangrove Sediment-Derived Fungus Lecanicillium kalimantanense” (Marine Drugs, 2023)
Converted amounts (≈) assume the structure as drawn. Where two headings read alike, the source gives them in different places.

Legend:
[1] = Cytotoxicity, CCK-8 method; type: cell-based; details: human
Experimental: (§1) Cytotoxic activity was evaluated using the human lung adenocarcinoma cell line H1975 and human hepatocellular carcinoma cell line HepG-2, using the CCK-8 method as described in our previous study. Briefly, each of the test compounds was dissolved in DMSO and further diluted to give final concentrations of 80, 40, 20, 10, 5, 2.5, and 1.25 μM, respectively. H1975 cells or HepG-2 cells (5 × 10^3 […]) were seeded in 96-well plates and treated with compounds at the indicated concentration for 24 hours and then 10 μL CCK-8 reagent was added to each well. The plates were incubated at 37 °C for another 4 hours. Finally, the optical density was measured at a wavelength of 450 nm with a Bio-Rad microplate reader. Dose–response curves were generated, and the IC50 values were calculated from the linear portion of log dose–response curves.

[2] = Cytotoxicity, CCK-8 method; type: cell-based; details: human; remark: listed apart in the source
Experimental: as §1

[3] = tested on: Micrococcus luteus; assay: Antibacterial assay, micro broth dilution; type: cell-based; details: read-out: Antibacterial Activity (MIC) M. luteus
Experimental: (§2) The micro broth dilution method was used to evaluate the antibacterial activities of compounds 1–19 against the growth of eight common pathogens: Bacillus subtilis BS01, Micrococcus luteus, Escherichia coli ATCC 25922, Staphylococcus aureus ATCC 6538, S. aureus MRSA, Streptococcus agalactiae ATCC 13813, S. iniae, and Pseudomonas aeruginosa ATCC 9027 in 96-well polystyrene plates. Vancomycin and ciprofloxacin were used as positive controls. Briefly, wells containing 100 μL bacteria dilutions (OD600 = 0.01) in Luria–Bertani (LB) medium were supplemented with different concentrations of 1–19 (80, 40, 20, 10, 5, 2.5, 1.25, and 0.625 μg/mL), vancomycin, and ciprofloxacin (40, 20, 10, 5, 2.5, 1.25, 0.625, and 0.3125 μg/mL), respectively. The MICs were determined after 24 hours’ incubation at 37 °C with the tested compounds.

[4] = tested on: S. aureus MRSA; assay: Antibacterial assay, micro broth dilution; type: cell-based; details: Staphylococcus aureus, read-out: Antibacterial Activity (MIC) MRSA
Experimental: as §2

[5] = tested on: Pseudomonas aeruginosa ATCC 9027; assay: Antibacterial assay, micro broth dilution; type: cell-based; details: read-out: Antibacterial Activity (MIC) P. aeruginosa
Experimental: as §2

[6] = tested on: Staphylococcus aureus ATCC 6538; assay: Antibacterial assay, micro broth dilution; type: cell-based; details: read-out: Antibacterial Activity (MIC) S. aureus
Experimental: as §2

[7] = tested on: Escherichia coli ATCC 25922; assay: Antibacterial assay, micro broth dilution; type: cell-based; details: read-out: Antibacterial Activity (MIC) E. coli
Experimental: as §2

[8] = tested on: Bacillus subtilis BS01; assay: Antibacterial assay, micro broth dilution; type: cell-based; details: read-out: Antibacterial Activity (MIC) B. subtilis
Experimental: as §2

[9] = tested on: Streptococcus agalactiae ATCC 13813; assay: Antibacterial assay, micro broth dilution; type: cell-based; details: read-out: Antibacterial Activity (MIC) S. agalactiae
Experimental: as §2

[10] = tested on: S. iniae; assay: Antibacterial assay, micro broth dilution; type: cell-based; details: Streptococcus iniae, read-out: Antibacterial Activity (MIC) S. iniae
Experimental: as §2

[11] = tested on: brine shrimps; assay: Brine shrimp lethality bioassay; type: in vivo; details: Table 3
From the text: The methods were the same as those used in our previous studies.

[12] = micro broth dilution, LB medium, 24 hours at 37 °C
[13] = ATCC9027, micro broth dilution, LB medium, 24 hours at 37 °C
[14] = ATCC6538, micro broth dilution, LB medium, 24 hours at 37 °C
[15] = ATCC25922, micro broth dilution, LB medium, 24 hours at 37 °C
[16] = BS01, micro broth dilution, LB medium, 24 hours at 37 °C
[17] = ATCC13813, micro broth dilution, LB medium, 24 hours at 37 °C
[18] = HepG-2 cells (hepatocellular carcinoma cell line), HepG-2 cells, CCK-8, 24 hours treatment, read-out: Cytotoxicity (IC50) against HepG-2
[19] = H1975 cells (lung adenocarcinoma cell line), H1975 cells, CCK-8, 24 hours treatment, read-out: Cytotoxicity (IC50) against H1975

| SMILES | IC50 at 24 h [1] | IC50 at 24 h [2] | MIC [3, 12] | MIC [4, 12] | MIC [5, 13] | MIC [6, 14] | MIC [7, 15] | MIC [8, 16] | MIC [9, 17] | MIC [10, 12] | Toxicity (TC50) Brine Shrimp [11] | other results |
| --- | --- | --- | --- | --- | --- | --- | --- | --- | --- | --- | --- | --- |
| CS[C@@]12Cc3ccccc3N1C(=O)[C@]1(SC)CC3=COC=C[C@H](OC(C)=O)C3N1C2=O (stereo partly drawn) [Compound 16, versicolor A] | > 80 µM | 7.2 µM | > 80 µg/mL | > 80 µg/mL | > 80 µg/mL | > 80 µg/mL | > 80 µg/mL | 70 µg/mL (≈ 153 µM) | 70 µg/mL (≈ 153 µM) | > 80 µg/mL |  |  |
| CS[C@@]12CC3=CC=C[C@H](OC(C)=O)[C@H]3N1C(=O)[C@]1(SC)CC3=COC=C[C@H](O)[C@H]3N1C2=O [Compound 11, 8-acetyl-bisdethiobis(methylsulfanyl)apoaranotin] | > 80 µM | 69.3 µM | > 80 µg/mL | > 80 µg/mL | > 80 µg/mL | > 80 µg/mL | > 80 µg/mL | 60 µg/mL (≈ 126 µM) | > 80 µg/mL | 50 µg/mL (≈ 105 µM) | >80 µg/mL |  |
| CS[C@@]1(Cc2ccccc2)NC(=O)[C@]2(SC)CC3=COC=C[C@H](O)[C@H]3N2C1=O [Compound 18, emestrin H] |  |  |  |  |  |  |  |  |  |  | >80 µg/mL | IC50 at 24 h ([1]; HepG-2 cells, CCK-8, 24 hours treatment, read-out: Cytotoxicity (IC50) against HepG-2): 41.2 µM; IC50 at 24 h ([2]; H1975 cells, CCK-8, 24 hours treatment, read-out: Cytotoxicity (IC50) against H1975): 50.6 µM; MIC ([3]; 24 h): > 80 µg/mL; MIC ([4]; 24 h): > 80 µg/mL; MIC ([5]; ATCC9027, 24 h): > 80 µg/mL; MIC ([6]; ATCC6538, 24 h): > 80 µg/mL; MIC ([7]; ATCC25922, 24 h): > 80 µg/mL; MIC ([8]; BS01, 24 h): 80 µg/mL (≈ 191 µM); MIC ([9]; ATCC13813, 24 h): > 80 µg/mL; MIC ([10]; 24 h): 40 µg/mL (≈ 95.6 µM) |
| CS[C@@]1(Cc2ccccc2)NC(=O)[C@H](Cc2ccccc2)NC1=O [Compound 6, Lecanicillium F] |  |  | > 80 µg/mL | > 80 µg/mL | > 80 µg/mL | > 80 µg/mL | > 80 µg/mL | > 80 µg/mL | > 80 µg/mL | > 80 µg/mL |  | IC50 at 24 h [1, 18]: > 80 µM; IC50 at 24 h [2, 19]: > 80 µM |
| CS[C@@]12CC3=COC=C[C@H](OC(C)=O)[C@H]3N1C(=O)[C@]1(SC)CC3=COC=C[C@H](OC(C)=O)[C@H]3N1C2=O [Compound 8, bisdethiobis(methylsulfanyl)acetylaranotin] | > 80 µM | > 80 µM | > 80 µg/mL | > 80 µg/mL | > 80 µg/mL | > 80 µg/mL | > 80 µg/mL | > 80 µg/mL | > 80 µg/mL | > 80 µg/mL |  |  |
| CS[C@@]12CC3=CC=C[C@H](O)[C@H]3N1C(=O)[C@]1(SC)CC3=COC=C[C@H](O)[C@H]3N1C2=O [Compound 14, bisdethiobis(methylsulfanyl)deacetylapoaranotin] | > 80 µM | > 80 µM | > 80 µg/mL | > 80 µg/mL | > 80 µg/mL | > 80 µg/mL | > 80 µg/mL | > 80 µg/mL | > 80 µg/mL | 40 µg/mL (≈ 92.1 µM) | >80 µg/mL |  |
| CS[C@@H]1NC(=O)[C@@](Cc2ccccc2)(SC)NC1=O [Compound 19, citriperazine B] |  |  | 70 µg/mL (≈ 236 µM) | > 80 µg/mL | > 80 µg/mL | > 80 µg/mL | > 80 µg/mL | 80 µg/mL (≈ 270 µM) | > 80 µg/mL | > 80 µg/mL |  | IC50 at 24 h [1, 18]: > 80 µM; IC50 at 24 h [2, 19]: > 80 µM |
| CS[C@@]12CC3=CC=C[C@H](OC(C)=O)[C@H]3N1C(=O)[C@]1(SC)CC3=COC=C[C@H](OC(C)=O)[C@H]3N1C2=O [Compound 12, bisdethiobis(methylsulfanyl)acetylapoaranotin] | > 80 µM | > 80 µM | 50 µg/mL (≈ 96.4 µM) | > 80 µg/mL | > 80 µg/mL | > 80 µg/mL | > 80 µg/mL | > 80 µg/mL | 50 µg/mL (≈ 96.4 µM) | > 80 µg/mL | 50 µg/mL |  |
| CS[C@@]12CC3=COC=C[C@H](OC(C)=O)[C@H]3N1C(=O)[C@]1(SC)CC3=COC=C[C@H](O)[C@H]3N1C2=O [Compound 10, bisdethiobis(methylsulfanyl)-aranotin] | > 80 µM | > 80 µM | > 80 µg/mL | > 80 µg/mL | > 80 µg/mL | > 80 µg/mL | > 80 µg/mL | > 80 µg/mL | > 80 µg/mL | > 80 µg/mL | >80 µg/mL |  |
| CS[C@@]1(Cc2ccccc2)NC(=O)[C@@](Cc2ccccc2)(SC)NC1=O [Compound 7, emethacin B] |  |  | > 80 µg/mL | > 80 µg/mL | > 80 µg/mL | > 80 µg/mL | > 80 µg/mL | > 80 µg/mL | > 80 µg/mL | > 80 µg/mL |  | IC50 at 24 h [1, 18]: > 80 µM; IC50 at 24 h [2, 19]: 16.9 µM |
| CN[C@H](CC(C)C)C(=O)N[C@H]1C(=O)N[C@@H](CC(N)=O)C(=O)N[C@H]2C(=O)N[C@H]3C(=O)N[C@H](C(=O)N[C@H](C(=O)O)c4cc(O)cc(O)c4-c4cc3ccc4O)[C@H](O)c3ccc(c(Cl)c3)Oc3cc2cc(c3O[C@@H]2O[C@H](CO)[C@@H](O)[C@H](O)[C@H]2O[C@H]2C[C@](C)(N)[C@H](O)[C@H](C)O2)Oc2ccc(cc2Cl)[C@H]1O [VMN, Vancomycin, reference compound] |  |  |  |  |  |  |  |  |  |  |  | MIC ([3]; 24 h): 0.6 µg/mL (≈ 0.414 µM); MIC ([4]; 24 h): 2.5 µg/mL (≈ 1.73 µM) |
| O=C1N2C3OC=CC4SC2(CC3C4O)C(=O)NC12Cc1ccccc1O2 (stereo not drawn) [Compound 1, Lecanicillium A] |  |  | > 80 µg/mL | > 80 µg/mL | > 80 µg/mL | > 80 µg/mL | > 80 µg/mL | 60 µg/mL (≈ 161 µM) | > 80 µg/mL | > 80 µg/mL | >80 µg/mL |  |
| CS[C@@]12CC3=COC=C[C@H](O)[C@H]3N1C(=O)[C@]1(SC)CC3=COC=C[C@H](O)[C@H]3N1C2=O [Compound 9, bisdethiobis(methylsulfanyl)deacetylaranotin] | > 80 µM | > 80 µM | > 80 µg/mL | > 80 µg/mL | > 80 µg/mL | > 80 µg/mL | > 80 µg/mL | > 80 µg/mL | > 80 µg/mL | > 80 µg/mL | >80 µg/mL |  |
| CS[C@@]12CC3=COC=C[C@H](OC(C)=O)[C@H]3N1C(=O)[C@]1(SC)CC3=CC=C[C@H](O)[C@H]3N1C2=O [Compound 13, bisdethiobis(methylsulfanyl)apoaranotin] | > 80 µM | > 80 µM | > 80 µg/mL | > 80 µg/mL | > 80 µg/mL | > 80 µg/mL | > 80 µg/mL | > 80 µg/mL | > 80 µg/mL | > 80 µg/mL |  |  |
| CS[C@@]12Cc3ccccc3N1C(=O)[C@]1(SC)CC3=COC=C[C@H](O)C3N1C2=O (stereo partly drawn) [Compound 17, 12,12a-anhydro-desacetyl-bis-dethio-7a, 14a-di-(methylmercapto)-apoaranotin] | > 80 µM | 35.2 µM | > 80 µg/mL | > 80 µg/mL | > 80 µg/mL | > 80 µg/mL | > 80 µg/mL | 80 µg/mL (≈ 192 µM) | 70 µg/mL (≈ 168 µM) | 30 µg/mL (≈ 72 µM) |  |  |
| O=C(O)c1cn(C2CC2)c2cc(N3CCNCC3)c(F)cc2c1=O [CFN, Ciprofloxacin, reference compound] |  |  |  |  | 0.6 µg/mL (≈ 1.81 µM) | 0.6 µg/mL (≈ 1.81 µM) | 0.6 µg/mL (≈ 1.81 µM) | 0.6 µg/mL (≈ 1.81 µM) | 5 µg/mL (≈ 15.1 µM) | 2.5 µg/mL (≈ 7.54 µM) |  |  |
